A short description of data set [1]: Water solubility. Type of data set: physicochemical. As to the method:
The sample was sonicated for a period of up to 20 minutes. If a solution was not obtained, further solvent was added and the process was repeated until a clear solution was obtained, and the results were recorded. Solutions used were 50 mM potassium biphthalate (pH 4); 100 mM glycine (pH 9); 25 mM sodium carbonate and 25 mM sodium bicarbonate (pH 10); or deionized water (DI).

For data set [2], the target named is partially purified pig heart adenosine kinase (Sus scrofa, UniProt A0A5G2R0F5). Kind of data set: biochemical. Particulars: pig heart adenosine kinase; 0.5 μM adenosine, pH 7.0, 20 minutes at 37° C; read-out: AK Inhibition (IC50). As to the method:
Adenosine kinase activity was measured essentially as described by Yamada et al Biochim. Biophys. Acta 660, 36-43 (1988) with a few minor modifications. Assay mixtures contained 50 mM TRIS-maleate buffer, pH 7.0, 0.1% BSA, 1 mM ATP 1 mM MgCl2, 0.5 μM [U-^14 C] adenosine (400-600 mCi/mmol) and varying duplicate concentrations of inhibitor. The reactions were initiated by addition of approximately 0.1 μU partially purified pig heart adenosine kinase, where one unit is defined as that amount of enzyme required to phosphorylate 1 μmol adenosine per minute. The reactions were incubated for 20 minutes at 37° C. The assay was quenched upon spotting 30 μL aliquots onto 2 cm^2 pieces of Whatman DE81 anion exchange paper. The paper squares were washed for 3 minutes in 6 L distilled/deionized water to remove the unreacted adenosine. […] The amount of ^14 C-AMP was quantified by scintillation counting.

The test system of data set [3] is male SA rats. Kind of data set: Anticonvulsant activity, maximal electroshock (MES) model. The data set is classed as in vivo. As to conditions: Rattus norvegicus, 1 h. As for the experimental part:
The anticonvulsant activity of the tested compounds was evaluated in male SA rats (100-150 g, Simonsen) using the maximal electroshock (MES) model described in Swinyard et al., Antiepileptic Drugs, 3d Ed. at 85-102 (Levy, et al., eds.), N.Y.: Raven Press (1989). The rats were maintained on a 12/12 light/dark cycle in temperature controlled facilities with free access to food and water. For p.o. administration, the animals are fasted overnight, prior to the experiment. One hour prior to seizure testing, the animals were injected interperitoneally (ip) or orally (per os, […]) with one of various doses of test compound dissolved in DMSO or PEG 400.
This endpoint was expressed as the percentage of animals in which the response was inhibited.
(In general: Protection in the maximal electroshock model is a classic sign of anticonvulsant action.)

The test system of data set [4] is Female SA rats. Kind of data set: Liver toxicity assay. Type of data set: in vivo, rat. Particulars: iv infusion 2 x 37.5 μmole/kg, 12 hours after second dose. As to the method: Female SA rats (150-200 g) are anesthetized with halothane and cannulated via the internal jugular vein. The animals are allowed to recover for 3 days. At this time, 37.5 μmole/kg of an AK inhibitor is dissolved in 50% PEG400 and infused through the jugular catheter over 20 minutes. Twelve hours later, an additional 37.5 μmole/kg is infused over 20 minutes (total dose=75 μmole/kg). […] Liver enzymes (serum glutamic-oxaloacetic transaminase (SGOT), serum glutamic-pyruvic transaminase (SGPT), alkaline phosphatase) and total bilirubin in the serum samples are determined by a commercial laboratory.

In data set [5] the test system is mice. As to conditions: cited from earlier work.
The subject of data set [6] is anesthetized rats. Particulars: cited from earlier work.
For data set [7], the system named is Rats. Put plainly: Anti-inflammatory activity, carrageenan paw. Type of data set: in vivo, rat. Particulars: 10 mg/kg, swelling after 3 hours. As to the method: Carrageenan (Type λ) was suspended in sterile PBS at 1% (w/v), autoclaved for 30 minutes, and stored at room temperature. Rats were pretreated with vehicle or AK inhibitor (10 mg/kg) by oral gavage or i.p. administration and the volume of the left hind paw was measured using a water displacement plethysmometer (Stoelting Co., Wood Dale, Ill.). One hour after oral treatment or 30 minutes after i.p. treatment, the rats were briefly anesthetized, and 0.1 ml of the carrageenan solution was injected subcutaneously into the planar surface of the left hind paw. The ensuing paw swelling was measured by plethysmometry after 3 hours. The paw volume in millileters was subtracted from the pre-injection paw volume. Data are presented as the percent inhibition of paw swelling in AK inhibitor treated animals, compared to vehicle treated control animals.
On the technique in general: Carrageenan injected into the paw causes an acute inflammation.

[8] abbreviates: ip, 30 minutes before carrageenan.
The mark [9] stands for this setting: po, one hour before carrageenan.
Where [10] appears, read: pH 4 (50 mM potassium biphthalate).
[11] abbreviates: po, one hour after dosing, fasted.

Structures can show the parent of a compound that is named as a salt.

partially purified pig heart adenosine kinase, sequence (A0A5G2R0F5 1-362): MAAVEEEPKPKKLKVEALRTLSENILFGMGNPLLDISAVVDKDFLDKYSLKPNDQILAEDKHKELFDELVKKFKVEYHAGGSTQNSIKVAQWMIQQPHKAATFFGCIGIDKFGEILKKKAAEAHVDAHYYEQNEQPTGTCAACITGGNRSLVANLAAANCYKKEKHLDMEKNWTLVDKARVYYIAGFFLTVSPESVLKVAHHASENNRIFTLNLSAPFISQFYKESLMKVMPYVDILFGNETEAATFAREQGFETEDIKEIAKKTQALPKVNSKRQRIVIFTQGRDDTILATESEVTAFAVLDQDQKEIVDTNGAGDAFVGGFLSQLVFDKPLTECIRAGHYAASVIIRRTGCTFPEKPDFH

For `C[C@H]1O[C@@H](n2cc(-c3ccccc3)c3c(Nc4ccccc4)ncnc32)[C@H](O)[C@@H]1O` [5-phenyl-4-N-phenylamino-7-(5-deoxy-1-β-D-ribofuranosyl)pyrrolo[2,3-d]pyrimidine, reference compound], in data set [1] (pH suitable for i.v. administration (e.g. pH 4 to 10)), the water solubility entry is recorded as “less than 20 μg/ml”.

One may read the IC50 as the midpoint of a concentration-inhibition curve. By solubility is commonly meant the concentration that dissolves in the medium under given conditions. High values mean much dissolved substance, low ones little dissolved substance. For orientation: ED50 means the midpoint of the dose-response relation. A high value points to a need for a large dose. As for `CC(=O)NS(=O)(=O)c1ccc(Nc2ncnc3c2c(-c2ccccc2)cn3[C@@H]2O[C@H](C)[C@@H](O)[C@H]2O)cc1` [Compound 40], the IC50 in data set [2] stood at 3000 nM. The solubility in data set [1] (pH 9 (100 mM glycine)) is above 1000 µg/mL. This compound also had an ED50 in data set [3] (ip) above 5 mg/kg.

`C[C@H]1O[C@@H](n2cc(I)c3c(NCc4ccncc4)ncnc32)[C@H](O)[C@@H]1O` [Compound 42, 4-N-(4-pyridylmethylamino)-5-iodo-7-(5-deoxy-1-β-D-ribofuranosyl)pyrrolo[2,3-d]pyrimidine]: in data set [3] (ip), the ED50 is 2 mg/kg.

Consider `C[C@H]1O[C@@H](n2cc(I)c3c(NCc4cccnc4)ncnc32)[C@H](O)[C@@H]1O` [Compound 44, 4-N-(3-pyridylmethylamino)-5-iodo-7-(5-deoxy-1-β-D-ribofuranosyl)pyrrolo[2,3-d]pyrimidine], for which the IC50 in data set [2] was 120 nM.

`C[C@H]1O[C@@H](n2cc(-c3ccccc3)c3c(Nc4ccc(C(N)=NO)cc4)ncnc32)[C@H](O)[C@@H]1O` [Compound 37, 4-N-(4-amidoximephenyl)amino-5-phenyl-7-(5-deoxy-1-β-D-ribofuranosylpyrrolo[2,3-d]pyrimidine hydrochloride]: in data set [2], the IC50 was 5 nM.

For the compound `NC[C@H]1O[C@@H](n2nc(Br)c3c(N)ncnc32)[C@H](O)[C@@H]1O` [REF. B, 4amino-1-(5-amino-5-deoxy-1-D-ribofuranosyl)-3-bromopyrazolo[3,4d]pyrimidne HCL], in data set [4], the “Alkaline Phosphatase” value was 113 IU/L, the SGOT came out at 100 IU/L, the SGPT was determined as 41 IU/L and the “Total Bilirubin” value is recorded as 0.30 mg/dL.

In data set [1] (sodium carbonate/sodium bicarbonate buffer, pH 10 (25 mM sodium carbonate and 25 mM sodium bicarbonate)), `C[C@H]1O[C@@H](n2cc(-c3ccccc3)c3c(Nc4ccc(NS(=O)(=O)C(F)(F)F)cc4)ncnc32)[C@H](O)[C@@H]1O` [Compound 8, 4-N-(4-N-trifluoromethanesulfonylaminophenyl)amino-5-phenyl-7-(5-deoxy-1-β-D-ribofuranosyl) pyrrolo(2,3-d)pyrimidine] yielded a solubility above 1000 µg/mL.

Take `C[C@H]1O[C@@H](n2cc(I)c3c(N)ncnc32)[C@H](O)[C@@H]1O` [REF. A]: in data set [5], the “general flaccidity (skeletal muscle relaxation)” value is reported as “pronounced general flaccidity”, the hypothermia entry is listed as “hypothermia” and the spontaneous locomotor activity entry is given as “much-reduced spontaneous locomotor activity”. Moreover, in data set [4], the “Alkaline Phosphatase” value is reported as 163 IU/L, the SGOT worked out at 508 IU/L, the SGPT is listed as 76 IU/L and the “Total Bilirubin” value is given as 0.76 mg/dL. For the same compound, in data set [6], the blood pressure result is reported as “decrease blood pressure”; the heart rate result was “decrease blood pressure and heart rate”.

Consider `C[C@H]1O[C@@H](n2cc(-c3cccnc3)c3c(Nc4ccccc4)ncnc32)[C@H](O)[C@@H]1O` [Compound 47, 4-N-Phenylamino-5-(3-pyridino)-7-(5-deoxy-1-β-D-ribofuranosyl) pyrrolo[2,3-d]pyrimidine], for which the “Carrageenan Paw (% inhibition) of paw swelling” value (“Carrageenan Paw (% inhibition)” for short) in data set [7] (setting [8]) is -4.4%; in data set [7] (setting [9]), 9.8%. The IC50 in data set [2] came out at 55 nM.

On to `C[C@H]1O[C@@H](n2cc(-c3ccccc3)c3c(Nc4ccc(CCN5CCNCC5)cc4)ncnc32)[C@H](O)[C@@H]1O` [Compound 4, 4-N[2-(1-piperazino)ethylphenyl]amino-5-phenyl-7-(5-deoxy-β-D-ribofuranosyl)pyrrolo[2,3-d]pyrimidine], for which the “Carrageenan Paw (% inhibition)” value was 39.9% in data set [7] (setting [8]) and 2.5% in data set [7] (setting [9]). In addition, the solubility in data set [1] (setting [10]) is above 1000 µg/mL.

For `OC[C@@H]1O[C@@H](n2cc(I)c3c(NCc4ccccn4)ncnc32)[C@H](O)[C@@H]1O` [Compound 46, 4-N-(2-pyridylmethyl)amino-5-iodo-7-(α-L-lyxofuranosyl)pyrrolo(2,3-d)pyrimidine], the IC50 in data set [2] is 220 nM.

In the case of `C[C@H]1O[C@@H](n2cc(-c3ccccc3)c3c(Nc4ccc(CCN5CCOCC5)cc4)ncnc32)[C@H](O)[C@@H]1O` [Compound 3, 4-N[2-(4-morpholino)ethylphenyl]amino-5-phenyl-7-(5-deoxy-β-D-ribofuranosyl)pyrrolo[2,3-d]pyrimidine], the 50% inhibitory concentration (IC50) in data set [2] amounted to 2 nM. The compound also returned a solubility in data set [1] (setting [10]) above 1000 µg/mL. The ED50 in data set [3] (setting [11]) is above 40 mg/kg.

Regarding `CCN(CC)CCNCCc1ccc(Nc2ncnc3c2c(-c2ccccc2)cn3[C@@H]2O[C@H](C)[C@@H](O)[C@H]2O)cc1` [Compound 5, 4-N[2-(2-N,N-diethylaminoethyleneamino)ethylphenyl]amino-5-phenyl-7-(5-deoxy-β-D-ribofuranosyl)pyrrolo[2,3-d]pyrimidine], the results for the “Carrageenan Paw (% inhibition)” value in data set [7] (setting [8]) and in data set [7] (setting [9]) were -3.4% and 4.1%, respectively. The IC50 in data set [2] was 1 nM. In addition, in data set [1] (deionized water (DI)), the solubility was above 5000 µg/mL.

`CCN(CC)CCc1ccc(Nc2ncnc3c2c(-c2ccccc2)cn3[C@@H]2O[C@H](C)[C@@H](O)[C@H]2O)cc1` [Compound 6, 4-N[2-N,N-diethylaminoethylphenyl]amino-5-phenyl-7-(5-deoxy-β-D-ribofuranosyl)pyrrolo[2,3-d]pyrimidine]: the IC50 in data set [2] was determined as 1 nM. In data set [1] (setting [10]), this compound showed a solubility above 1000 µg/mL.

Turning to `C[C@H]1O[C@@H](n2cc(-c3cccnc3)c3c(NCc4ccccn4)ncnc32)[C@H](O)[C@@H]1O` [Compound 48, 4-N-(2-pyridylmethyl)amino-5-(3-pyridino)-7-(5-deoxy-1-β-D-ribofuranosyl)pyrrolo[2,3-d]pyrimidine], the IC50 in data set [2] was determined as 300 nM.

As for `C[C@H]1O[C@@H](n2cc(I)c3c(NCc4nc5ccccc5[nH]4)ncnc32)[C@H](O)[C@@H]1O` [Compound 45, 4-N-(2-benzimidazolylmethyl)amino-5-iodo-7-(5-deoxy-1-β-D-ribofuranosyl) pyrrolo[(2,3-d)]pyrimidine], in data set [2], the IC50 turned out to be 500 nM.

For the compound `C[C@H]1O[C@@H](n2cc(-c3ccccc3)c3c(Nc4ccc(CCN(C)C)cc4)ncnc32)[C@H](O)[C@@H]1O` [Compound 7, 4-N[2-N,N-dimethylaminoethylphenyl]amino-5-phenyl-7-(5-deoxy-β-D-fibofuranosyl)pyrrolo[2,3-d]pyrimidine], the “Carrageenan Paw (% inhibition)” value in data set [7] (setting [8]) is on record as 19.0%; in data set [7] (setting [9]) it was 7.7%. In data set [2], the IC50 is 1 nM. The same compound showed a solubility in data set [1] (setting [10]) above 1000 µg/mL.

Consider `C[C@H]1O[C@@H](n2cc(-c3ccccc3)c3c(Nc4ccc(CCN)cc4)ncnc32)[C@H](O)[C@@H]1O` [Compound 22, 4-N-(2-Aminoethylphenyl)amino-5-phenyl-7-(5-deoxy-β-D-ribofuranosyl)pyrrolo[2,3-d]pyrimidine], for which the figures for the “Carrageenan Paw (% inhibition)” value in data set [7] (setting [8]) and in data set [7] (setting [9]) were 31.6% and 12.4%, respectively. In addition, in data set [1] (setting [10]), the solubility was above 1000 µg/mL.

Take `C[C@H]1O[C@@H](n2cc(-c3ccccc3)c3c(NCc4ccncc4)ncnc32)[C@H](O)[C@@H]1O` [Compound 49, 4-N-(4-pyridylmethyl)amino-5-phenyl-7-(5-deoxy-1-β-D-ribofuranosyl)-pyrrolo[2,3-d]pyrimidine]: the IC50 in data set [2] is 67 nM. In data set [3] (setting [11]), this compound had an ED50 of 40 mg/kg.

The values above are taken from patent US5726302A, “Water soluble adenosine kinase inhibitors” (Gensia Inc., priority 1995, dated 1998).
